Activity calls are given as the source filed them. The calls are words filed in the database; no cut-off is given here.
What was measured:
[1] = target: von Hippel-Lindau disease tumor suppressor/Proto-oncogene tyrosine-protein kinase Src (Homo sapiens) (UniProt P12931+P40337); experiment: Protac activity against VHL/Src in human K562 cells assessed as reduction in Src protein levels at 1 to 100 nM incubated for 16 hrs by Western blot analysis; type: cell-based
[2] = target: von Hippel-Lindau disease tumor suppressor/Tyrosine-protein kinase ABL2 (Homo sapiens) (UniProt P42684+P40337); experiment: Protac activity against VHL/ABL2 in human K562 cells assessed as reduction in ABL2 protein levels at 1 to 100 nM incubated for 16 hrs by Western blot analysis; type: cell-based
[3] = target: T1, Bcr/Abl fusion protein (Homo sapiens) (UniProt P00519+P11274); experiment: Inhibition of BCR-ABL phosphorylation in human KU812 cells at 1 to 30 nM by Western blot analysis; type: cell-based
[4] = target: von Hippel-Lindau disease tumor suppressor/Tyrosine-protein kinase ABL1 (Homo sapiens) (UniProt P00519+P40337); experiment: Protac activity against VHL/c-ABL in human K562 cells assessed as reduction in c-ABL protein levels at 1 to 100 nM incubated for 16 hrs by Western blot analysis; type: cell-based
[5] = target: T2, von Hippel-Lindau disease tumor suppressor/Tyrosine-protein kinase ABL1/Breakpoint cluster region protein (Homo sapiens, UniProt P00519+P11274+P40337); experiment: Induction of ternary complex formation between VHL and BCR-ABL (unknown origin) expressed in HEK293 cells expressing N-terminal BCR-ABL LgBit fusion protein and N-terminal SmBit-VHL fusion protein at 1 uM incubated for 1 hr by NanoBit technology based luciferase complementation assay; type: cell-based
[6] = target: T2, von Hippel-Lindau disease tumor suppressor/Tyrosine-protein kinase ABL1/Breakpoint cluster region protein; experiment: Protac activity against VHL/BCR-ABL in human K562 cells assessed as induction of BCR-ABL degradation by Western blot analysis; type: cell-based
[7] = target: von Hippel-Lindau disease tumor suppressor/Mast/stem cell growth factor receptor Kit (Homo sapiens) (UniProt P10721+P40337); experiment: Protac activity against VHL/KIT in human K562 cells assessed as reduction in Kit protein levels at 1 to 100 nM incubated for 16 hrs by Western blot analysis; type: cell-based
[8] = Permeability in human Caco2 cells at 10 uM incubated for 120 mins by LC-MS/MS analysis; type: ADME, cell-based; details: caco-2, 2 h
[9] = tested on: K562; experiment: Effect on BCR-ABL protein levels in human K562 cells at 100 nM up to 24 hrs by Western blot analysis; type: ADME, cell-based; details: k562, 24 h, 0.1 µM
[10] = target: T2, von Hippel-Lindau disease tumor suppressor/Tyrosine-protein kinase ABL1/Breakpoint cluster region protein; experiment: Protac activity against VHL/BCR-ABL in human K562 cells assessed as induction of BCR-ABL degradation pre-treated with 100 nM dasatinib for 2 hrs followed by compound addition at 100 nM and further incubated for 8 hrs by Western blot analysis; type: cell-based
[11] = target: T2, von Hippel-Lindau disease tumor suppressor/Tyrosine-protein kinase ABL1/Breakpoint cluster region protein; experiment: Protac activity against VHL/BCR-ABL in NOD/SCID mouse xenografted with luciferse expressing human K562 cells assessed as induction of BCR-ABL degradation at 5 to 15 mg/kg, ip QD for 4 days by Western blotting analysis; type: functional, organism-based
[12] = target: T1, Bcr/Abl fusion protein (Homo sapiens); experiment: Inhibition of BCR-ABL phosphorylation in human K562 cells at 1 to 100 nM by Western blot analysis; type: cell-based
[13] = target: T2, von Hippel-Lindau disease tumor suppressor/Tyrosine-protein kinase ABL1/Breakpoint cluster region protein; experiment: Protac activity against VHL/BCR-ABL in human K562 cells assessed as induction of BCR-ABL degradation pre-treated with 4 uM VHL1 for 2 hrs followed by compound addition at 100 nM and further incubated for 8 hrs by Western blot analysis; type: cell-based
[14] = tested on: K562; experiment: Induction of cell death in human K562 cells assessed as reduction in cell viability at 20 times IC50 incubated for 12 hrs followed by drug wash-out and incubation in drug-free medium up to 144 hrs by CCK8 assay; type: functional, cell-based
[15] = tested on: KU812 cell line; experiment: Growth inhibition of human KU812 cells incubated for 2 days by CCK8 assay; type: functional, cell-based
[16] = tested on: von Hippel-Lindau disease tumor suppressor/Tyrosine-protein kinase ABL1/Breakpoint cluster region protein (Homo sapiens), P00519+P11274+P40337 [F317L]; experiment: Protac activity against VHL/BCR-ABL F317L mutant (unknown origin) expressed in human U937 cells assessed as induction of BCR-ABL degradation incubated for 16 hrs by Western blot analysis; type: cell-based
[17] = target: T2, von Hippel-Lindau disease tumor suppressor/Tyrosine-protein kinase ABL1/Breakpoint cluster region protein; experiment: Protac activity against VHL/BCR-ABL (unknown origin) expressed in human U937 cells assessed as induction of BCR-ABL degradation incubated for 16 hrs by Western blot analysis; type: cell-based
[18] = target: T2, von Hippel-Lindau disease tumor suppressor/Tyrosine-protein kinase ABL1/Breakpoint cluster region protein; experiment: Induction of ternary complex formation between VHL and BCR-ABL (unknown origin) expressed in HEK293 cells expressing N-terminal BCR-ABL LgBit fusion protein and N-terminal SmBit-VHL fusion protein incubated for 1 hr by NanoBit technology based luciferase complementation assay; type: cell-based
[19] = tested on: SUP-B15; experiment: Growth inhibition of human SUP-B15 cells incubated for 2 days by CCK8 assay; type: functional, cell-based
[20] = target: T1, Bcr/Abl fusion protein (Homo sapiens); experiment: Inhibition of BCR-ABL in human K562 cells assessed as reduction in STAT5 phosphorylation at 1 to 100 nM by Western blot analysis; type: cell-based
[21] = target: von Hippel-Lindau disease tumor suppressor/Tyrosine-protein kinase Lck (Homo sapiens) (UniProt P06239+P40337); experiment: Protac activity against VHL/LCK in human K562 cells assessed as reduction in Lck protein levels at 1 to 100 nM incubated for 16 hrs by Western blot analysis; type: cell-based
[22] = tested on: von Hippel-Lindau disease tumor suppressor/Tyrosine-protein kinase ABL1/Breakpoint cluster region protein (Homo sapiens), P00519+P11274+P40337 [F317V]; experiment: Protac activity against VHL/BCR-ABL F317V mutant (unknown origin) expressed in human U937 cells assessed as induction of BCR-ABL degradation incubated for 16 hrs by Western blot analysis; type: cell-based
[23] = target: T2, von Hippel-Lindau disease tumor suppressor/Tyrosine-protein kinase ABL1/Breakpoint cluster region protein; experiment: Protac activity against VHL/BCR-ABL in human K562 cells assessed as induction of BCR-ABL degradation pre-treated with 2.5 uM proteasome inhibitor MG132 for 2 hrs followed by compound addition at 100 nM and further incubated for 8 hrs by Western blot analysis; type: cell-based
[24] = target: T2, von Hippel-Lindau disease tumor suppressor/Tyrosine-protein kinase ABL1/Breakpoint cluster region protein; experiment: Induction of ternary complex formation between VHL and BCR-ABL (unknown origin) expressed in HEK293 cells expressing N-terminal BCR-ABL LgBit fusion protein and N-terminal SmBit-VHL fusion protein pre-treated with 10 uM dasatinib for 2 hrs followed by compound addition at 1 uM and further incubated for 1 hr by NanoBit technology based luciferase complementation assay; type: cell-based
[25] = tested on: K562; experiment: Growth inhibition of human K562 cells assessed as reduction in cell density at 20 times IC50 incubated for 12 hrs followed by drug wash-out and incubation in drug-free medium up to 144 hrs by CCK8 assay; type: functional, cell-based
[26] = target: von Hippel-Lindau disease tumor suppressor/Platelet-derived growth factor receptor beta (Homo sapiens) (UniProt P09619+P40337); experiment: Protac activity against VHL/PDGFRbeta in human K562 cells assessed as reduction in PDGFRbeta protein levels at 1 to 100 nM incubated for 16 hrs by Western blot analysis; type: cell-based
[27] = tested on: von Hippel-Lindau disease tumor suppressor/Tyrosine-protein kinase ABL1/Breakpoint cluster region protein (Homo sapiens), P00519+P11274+P40337 [V299L]; experiment: Protac activity against VHL/BCR-ABL V299L mutant (unknown origin) expressed in human U937 cells assessed as induction of BCR-ABL degradation incubated for 16 hrs by Western blot analysis; type: cell-based
[28] = tested on: HEK293; experiment: Growth inhibition of human HEK293 cells incubated for 2 days by CCK8 assay; type: cell-based; details: hek293, 48 h

T1 sequence (P00519 whole entry, looked up, the tested form may be a part): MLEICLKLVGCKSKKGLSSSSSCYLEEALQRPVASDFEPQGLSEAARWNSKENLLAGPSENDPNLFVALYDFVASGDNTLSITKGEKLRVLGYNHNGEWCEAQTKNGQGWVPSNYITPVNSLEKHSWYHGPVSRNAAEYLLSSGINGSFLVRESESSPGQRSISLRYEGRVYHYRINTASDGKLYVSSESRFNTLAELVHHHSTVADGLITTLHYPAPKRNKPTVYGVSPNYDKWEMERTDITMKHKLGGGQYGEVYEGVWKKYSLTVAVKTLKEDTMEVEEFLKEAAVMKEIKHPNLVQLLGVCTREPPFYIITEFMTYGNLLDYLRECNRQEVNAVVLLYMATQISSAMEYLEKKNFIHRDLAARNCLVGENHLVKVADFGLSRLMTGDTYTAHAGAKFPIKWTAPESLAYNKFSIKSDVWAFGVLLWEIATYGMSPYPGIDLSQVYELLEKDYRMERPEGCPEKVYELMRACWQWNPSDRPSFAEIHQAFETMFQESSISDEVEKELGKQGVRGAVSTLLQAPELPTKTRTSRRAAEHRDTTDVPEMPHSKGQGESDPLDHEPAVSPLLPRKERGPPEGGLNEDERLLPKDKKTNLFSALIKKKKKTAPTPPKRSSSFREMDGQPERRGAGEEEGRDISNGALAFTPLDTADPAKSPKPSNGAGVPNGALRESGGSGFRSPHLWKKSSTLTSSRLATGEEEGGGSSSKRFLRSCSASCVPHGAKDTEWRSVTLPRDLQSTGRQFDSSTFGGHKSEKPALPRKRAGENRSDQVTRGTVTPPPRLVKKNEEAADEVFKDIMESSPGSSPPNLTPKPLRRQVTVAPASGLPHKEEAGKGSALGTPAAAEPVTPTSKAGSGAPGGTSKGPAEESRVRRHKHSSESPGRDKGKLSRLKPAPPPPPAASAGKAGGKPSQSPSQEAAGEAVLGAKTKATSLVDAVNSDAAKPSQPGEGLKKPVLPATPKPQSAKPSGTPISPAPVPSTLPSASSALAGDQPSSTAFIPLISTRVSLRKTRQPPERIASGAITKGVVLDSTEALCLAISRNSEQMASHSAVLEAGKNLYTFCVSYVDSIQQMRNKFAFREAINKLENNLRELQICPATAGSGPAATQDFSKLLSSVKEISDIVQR
T1 sequence (P11274 whole entry, looked up, the tested form may be a part): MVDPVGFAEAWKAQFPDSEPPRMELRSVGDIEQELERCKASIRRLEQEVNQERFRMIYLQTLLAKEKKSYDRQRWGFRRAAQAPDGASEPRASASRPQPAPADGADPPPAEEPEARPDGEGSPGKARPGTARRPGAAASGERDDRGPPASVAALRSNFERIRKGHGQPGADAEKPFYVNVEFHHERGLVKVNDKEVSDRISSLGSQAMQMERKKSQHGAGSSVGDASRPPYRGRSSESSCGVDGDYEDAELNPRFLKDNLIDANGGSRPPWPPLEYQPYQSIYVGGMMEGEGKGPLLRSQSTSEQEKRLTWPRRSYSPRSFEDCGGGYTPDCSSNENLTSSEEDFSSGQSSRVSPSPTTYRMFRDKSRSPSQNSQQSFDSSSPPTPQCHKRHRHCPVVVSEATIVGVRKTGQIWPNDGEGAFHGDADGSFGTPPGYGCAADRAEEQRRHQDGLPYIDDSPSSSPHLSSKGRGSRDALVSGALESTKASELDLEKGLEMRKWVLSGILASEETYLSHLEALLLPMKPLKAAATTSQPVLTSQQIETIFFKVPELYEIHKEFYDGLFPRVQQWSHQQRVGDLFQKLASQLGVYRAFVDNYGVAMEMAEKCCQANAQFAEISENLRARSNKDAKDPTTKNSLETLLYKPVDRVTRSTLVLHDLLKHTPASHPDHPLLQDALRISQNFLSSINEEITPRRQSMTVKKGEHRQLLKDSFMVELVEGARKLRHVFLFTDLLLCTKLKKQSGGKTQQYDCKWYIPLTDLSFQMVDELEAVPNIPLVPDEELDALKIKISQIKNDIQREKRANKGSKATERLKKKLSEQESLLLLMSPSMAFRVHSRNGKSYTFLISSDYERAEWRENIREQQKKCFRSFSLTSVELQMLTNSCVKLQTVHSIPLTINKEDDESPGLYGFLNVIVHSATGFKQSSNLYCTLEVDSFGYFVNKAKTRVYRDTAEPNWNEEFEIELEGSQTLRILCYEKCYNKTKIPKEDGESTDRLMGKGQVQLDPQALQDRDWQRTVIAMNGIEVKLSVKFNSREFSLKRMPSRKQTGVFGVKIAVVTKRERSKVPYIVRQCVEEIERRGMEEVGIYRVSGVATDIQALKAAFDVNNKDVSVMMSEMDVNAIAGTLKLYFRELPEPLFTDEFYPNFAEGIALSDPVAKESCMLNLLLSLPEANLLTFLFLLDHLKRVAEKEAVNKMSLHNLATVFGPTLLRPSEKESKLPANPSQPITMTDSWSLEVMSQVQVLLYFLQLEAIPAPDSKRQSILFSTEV
Chain of von Hippel-Lindau disease tumor suppressor/Tyrosine-protein kinase ABL1 (Homo sapiens) (P00519 whole entry, looked up, the tested form may be a part): as the sequence (P00519 whole entry, looked up, the tested form may be a part) above
Chain of von Hippel-Lindau disease tumor suppressor/Tyrosine-protein kinase ABL1 (Homo sapiens) (P40337 whole entry, looked up, the tested form may be a part): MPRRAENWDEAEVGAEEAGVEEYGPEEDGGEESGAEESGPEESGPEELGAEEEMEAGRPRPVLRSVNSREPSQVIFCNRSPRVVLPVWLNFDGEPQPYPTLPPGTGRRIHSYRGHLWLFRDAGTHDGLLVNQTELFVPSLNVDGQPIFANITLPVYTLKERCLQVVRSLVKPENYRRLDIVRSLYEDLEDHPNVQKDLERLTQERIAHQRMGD
Chain of von Hippel-Lindau disease tumor suppressor/Tyrosine-protein kinase Lck (Homo sapiens) (P06239 whole entry, looked up): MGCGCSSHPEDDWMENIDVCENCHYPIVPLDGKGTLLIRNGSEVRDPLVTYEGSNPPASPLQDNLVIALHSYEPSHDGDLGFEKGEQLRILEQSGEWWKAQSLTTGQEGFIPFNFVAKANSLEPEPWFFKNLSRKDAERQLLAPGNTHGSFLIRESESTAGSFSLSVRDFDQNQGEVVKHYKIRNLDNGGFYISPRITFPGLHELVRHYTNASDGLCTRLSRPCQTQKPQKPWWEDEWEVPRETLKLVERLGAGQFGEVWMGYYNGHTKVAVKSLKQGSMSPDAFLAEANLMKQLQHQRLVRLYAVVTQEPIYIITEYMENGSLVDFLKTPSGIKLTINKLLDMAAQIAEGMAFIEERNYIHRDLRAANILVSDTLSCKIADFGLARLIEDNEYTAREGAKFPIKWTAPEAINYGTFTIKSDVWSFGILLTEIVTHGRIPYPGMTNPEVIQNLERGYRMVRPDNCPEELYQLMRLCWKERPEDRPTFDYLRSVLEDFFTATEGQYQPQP
Chain of von Hippel-Lindau disease tumor suppressor/Tyrosine-protein kinase Lck (Homo sapiens) (P40337 whole entry, looked up): as the sequence (P40337 whole entry, looked up, the tested form may be a part) above

**Q.** For `Cc1nc(Nc2ncc(C(=O)Nc3c(C)cccc3Cl)s2)cc(N2CCN(C(=O)CCCCCCC(=O)N[C@H](C(=O)N3C[C@H](O)C[C@H]3C(=O)NCc3ccc(-c4scnc4C)cc3)C(C)(C)C)CC2)n1`, which Activity [1] is on record?
**A.** The Activity was “Dose-dependent effect”.

**Q.** And the Activity [2]?
**A.** Its Activity is “Dose-dependent effect”.

**Q.** What about the inhibition [3] of the same compound?
**A.** The inhibition was “Active”.

**Q.** What about the Activity [4] of the same compound?
**A.** Its Activity is “Dose-dependent effect”.

**Q.** And the Activity [5]?
**A.** The Activity was “Active”.

**Q.** What about the Activity [6] of the same compound?
**A.** The Activity was “Dose-dependent effect”.

**Q.** And the DC50 [6]?
**A.** Its DC50 is 8.5 nM.

**Q.** And the Activity [7]?
**A.** Its Activity is “inactive”.

**Q.** What about the permeability [8] of the same compound?
**A.** The permeability was “Permeable”.

**Q.** What about the Activity [9] of the same compound?
**A.** Its Activity is “Non-Toxic”.

**Q.** What about the Activity [10] of the same compound?
**A.** Its Activity is “inactive”.

**Q.** What about the Activity [11] of the same compound?
**A.** The Activity was “Dose-dependent effect”.

**Q.** What about the inhibition [12] of the same compound?
**A.** Its inhibition is “Active”.

**Q.** And the Activity [13]?
**A.** The Activity was “inactive”.

**Q.** And the Activity [14]?
**A.** The Activity was “Active”.

**Q.** What about the “growth inhibition (GI)” value [15] of the same compound?
**A.** The value was “Active”.

**Q.** And the Activity [16]?
**A.** The Activity was “Dose-dependent effect”.

**Q.** What about the Activity [17] of the same compound?
**A.** The Activity was “Dose-dependent effect”.

**Q.** And the Activity [18]?
**A.** Its Activity is “Active”.

**Q.** And the “growth inhibition (GI)” value [19]?
**A.** The value was “Active”.

**Q.** And the inhibition [20]?
**A.** The inhibition was “Active”.

**Q.** What about the Activity [21] of the same compound?
**A.** The Activity was “inactive”.

**Q.** And the Activity [22]?
**A.** The Activity was “Dose-dependent effect”.

**Q.** And the Activity [23]?
**A.** Its Activity is “inactive”.

**Q.** What about the Activity [24] of the same compound?
**A.** The Activity was “inactive”.

**Q.** What about the “growth inhibition (GI)” value [25] of the same compound?
**A.** Its value is “Active”.

**Q.** And the Activity [26]?
**A.** The Activity was “Dose-dependent effect”.

**Q.** And the Activity [27]?
**A.** The Activity was “Dose-dependent effect”.

**Q.** What about the “growth inhibition (GI)” value [28] of the same compound?
**A.** Its value is “Non-Toxic”.

Reference: ChEMBL document CHEMBL4414590, “Discovery of SIAIS178 as an Effective BCR-ABL Degrader by Recruiting Von Hippel-Lindau (VHL) E3 Ubiquitin Ligase” (J Med Chem, 2019)
